Here are results for 1 compound from patent publication US4795748A, “Antibacterial 7-oxo-4-thia-1-azabicyclo[3,2,0]hept-2-ene derivatives” (Hoechst UK Limited, priority 1984, dated 1989).

In brackets after ≈: the same amount, converted by molar mass.

What all share (type): cell-based
One assay relates to E. coli DC2. The experiment in a line: agar dilution test, MIC, E. coli DC2. The note with it: Escherichia coli, Mueller Hinton agar, 16 to 18 hours, 37° C., read-out: Minimum Inhibitory Concentration. Here is the method: (§1) The antimicrobial activity was determined by measuring the Minimum Inhibitory Concentration (MIC). The MIC of the compounds was determined by a standard test, the "agar dilution test" according to Lorian (Antibioticsin Laboratory Medicine, Williams and Wilkins, Baltimore/London 1980) as follows:
(§2) A two-fold decreasing concentration series of each compound was prepared in Petri dishes containing 15 ml of Mueller Hinton agar (Difco). One Petri dish containing only the Mueller Hinton agar served as control for bacterial growth. Each Petri dish was inoculated with a multi-point inoculator (Denley), which transfered 0.6 μl of a 1:100 diluted 18 hours culture of the appropriate test bacterium. After 16 to 18 hours of incubation at 37° C., the Petri dishes were examined for growth of bacteria. The lowest concentration of the compound which causes complete inhibition of growth is taken as the MIC.
Background: In agar dilution the substance is mixed into plates at graded concentrations.

The test system of the next assay is Staph. aureus SG 511. Nature of the assay: agar dilution test, MIC, Staph. aureus SG 511. The conditions noted are these: Staphylococcus aureus, SG511, Mueller Hinton agar, 16 to 18 hours, 37° C., read-out: Minimum Inhibitory Concentration. Here is the method: as §1, §2
A further assay relates to Str. pyogenes 308 A. The experiment in a line: agar dilution test, MIC, Str. pyogenes 308 A. The note with it: Streptococcus pyogenes, Mueller Hinton agar, 16 to 18 hours, 37° C., read-out: Minimum Inhibitory Concentration. Here is the method: as §1, §2
A further assay relates to E. coli TEM. Nature of the assay: agar dilution test, MIC, E. coli TEM. The note with it: Escherichia coli, 18 h, read-out: Minimum Inhibitory Concentration. Here is the method: as §1, §2
The next assay deals with E. coli 1507 E. Nature of the assay: agar dilution test, MIC, E. coli 1507 E. The conditions noted are these: Escherichia coli, Mueller Hinton agar, 16 to 18 hours, 37° C., read-out: Minimum Inhibitory Concentration. Here is the method:
as §1, §2

Another assay concerns E. coli 055. The experiment in a line: agar dilution test, MIC, E. coli 055. The note with it: Escherichia coli, Mueller Hinton agar, 16 to 18 hours, 37° C., read-out: Minimum Inhibitory Concentration. Here is the method: as §1, §2
In the next assay the test system is Ent. cloacae 1321 E. The experiment in a line: agar dilution test, MIC, Ent. cloacae 1321 E. The conditions noted are these: Enterobacter cloacae, Mueller Hinton agar, 16 to 18 hours, 37° C., read-out: Minimum Inhibitory Concentration. As to the method: as §1, §2
Another assay relates to Str. faecium D. Nature of the assay: agar dilution test, MIC, Str. faecium D. The note with it: Enterococcus faecium, Mueller Hinton agar, 16 to 18 hours, 37° C., read-out: Minimum Inhibitory Concentration. Here is the method: as §1, §2
Another assay concerns Kl. aerog. 1522 E. Nature of the assay: agar dilution test, MIC, Kl. aerog. 1522 E. The conditions noted are these: Mueller Hinton agar, 16 to 18 hours, 37° C., read-out: Minimum Inhibitory Concentration. As to the method:
as §1, §2

A further assay concerns Staph. aureus 285. Nature of the assay: agar dilution test, MIC, Staph. aureus 285. The note with it: Staphylococcus aureus, Mueller Hinton agar, 16 to 18 hours, 37° C., read-out: Minimum Inhibitory Concentration. Here is the method: as §1, §2
Assay [1] concerns a variety of microorganisms, particularly β-lactamase producing organisms. Nature of the assay: antibacterial activity compared with the corresponding unsubstituted 3-phenoxy compound. The conditions noted are these: against a variety of microorganisms. As to the method: as §1, §2
The next assay relates to E. coli KN 126. Nature of the assay: agar dilution test, MIC, E. coli KN 126. The conditions noted are these: Escherichia coli, KN126, Mueller Hinton agar, 16 to 18 hours, 37° C., read-out: Minimum Inhibitory Concentration. Here is the method:
as §1, §2

The subject of another assay is Salm. typhimurium MZ II. The experiment in a line: agar dilution test, MIC, Salm. typhimurium MZ II. The conditions noted are these: Salmonella enterica, Mueller Hinton agar, 16 to 18 hours, 37° C., read-out: Minimum Inhibitory Concentration. As to the method: as §1, §2
The subject of another assay is Staph. aureus 503. Nature of the assay: agar dilution test, MIC, Staph. aureus 503. The note with it: Staphylococcus aureus, Mueller Hinton agar, 16 to 18 hours, 37° C., read-out: Minimum Inhibitory Concentration. As to the method: as §1, §2
The next assay concerns Kl. aerog. 1082 E. The experiment in a line: agar dilution test, MIC, Kl. aerog. 1082 E. The note with it: Mueller Hinton agar, 16 to 18 hours, 37° C., read-out: Minimum Inhibitory Concentration. Here is the method:
as §1, §2

Another assay concerns Bac. subtilis ATCC 6633. The experiment in a line: agar dilution test, MIC, Bac. subtilis ATCC 6633. The conditions noted are these: Bacillus subtilis, ATCC6633, Mueller Hinton agar, 16 to 18 hours, 37° C., read-out: Minimum Inhibitory Concentration. As to the method:
as §1, §2

The subject of the next assay is Str. pyogenes 77A. Nature of the assay: agar dilution test, MIC, Str. pyogenes 77A. The note with it: Streptococcus pyogenes, Mueller Hinton agar, 16 to 18 hours, 37° C., read-out: Minimum Inhibitory Concentration. As to the method:
as §1, §2

In the case of `C[C@@H](O)[C@H]1C(=O)N2C(C(=O)O)=C(Oc3ccc(C(N)=O)cc3)S[C@H]12` [Ra = 4-CONH2, 5R-3-(4-carbamoylphenoxy)-6S-(1R-hydroxyethyl)-7-oxo-4-thia-1-azabicyclo[3,2,0]hept-2-ene-2-carboxylate], the MIC was found to be 0.78 µg/mL (≈ 2.23 µM) with E. coli DC2; 0.05 µg/mL (≈ 0.143 µM) in the assay with Staph. aureus SG 511; 0.025 µg/mL (≈ 0.0714 µM) with Str. pyogenes 308 A; 0.39 µg/mL (≈ 1.11 µM) with E. coli TEM; 0.39 µg/mL (≈ 1.11 µM) with E. coli 1507 E; 0.19 µg/mL (≈ 0.542 µM) in the assay with E. coli 055. Further, the MIC with Ent. cloacae 1321 E came to 0.78 µg/mL (≈ 2.23 µM); in the assay with Str. faecium D, 6.25 µg/mL (≈ 17.8 µM); in the assay with Kl. aerog. 1522 E, 0.78 µg/mL (≈ 2.23 µM); in the assay with Staph. aureus 285, 0.1 µg/mL (≈ 0.285 µM); in the assay with E. coli KN 126 it was 0.39 µg/mL (≈ 1.11 µM); with Salm. typhimurium MZ II, 0.78 µg/mL (≈ 2.23 µM). Also, the MIC with Staph. aureus 503 turned out to be 0.1 µg/mL (≈ 0.285 µM); with Kl. aerog. 1082 E, 0.39 µg/mL (≈ 1.11 µM); in the assay on Bac. subtilis ATCC 6633, 0.05 µg/mL (≈ 0.143 µM); in the assay on Str. pyogenes 77A, 0.05 µg/mL (≈ 0.143 µM). Further, the “antibacterial activity versus the corresponding unsubstituted 3-phenoxy compound” value in assay [1] is on record as “greater antibacterial activity”.
